Values of other authors in US6444469B1, “Methods for altering the rate of plant development and plants obtained therefrom” (Yale University, priority 1996, dated 2002).

Test system: late-flowering strains and mutants of Arabidopsis
Settings: treatment of seeds; some late-flowering strains and mutants

## Nc1ncn([C@@H]2O[C@H](CO)[C@@H](O)[C@H]2O)c(=O)n1 [Line 5-AzaC, 5-azacytidine]
  Effect on flowering: early flowering
